Laboratory results reported in patent publication US9144594B2, “Cathepsin L mediated diseases and associated methods and products” (University of Miami, priority 2005, dated 2015).
“Also recorded” adds a separate entry of the source.

What was measured:
[1] = target: T1, cathepsin L (Homo sapiens, UniProt P07711); experiment: Processing of recombinant dynamin by purified CatL in vitro; assay type: biochemical
T1 construct: purchased Sigma, Saint Louis, Mo
Description: Reinheckel and colleges have developed the bioinformatics tool ‘PEPS’ (Prediction of Endopeptidase Substrates) to predict endopeptidase cleavage sites. By using PEPS, three putative cathepsin L sites within dynamin were identified (FIG. 4A). To assess whether cathepsin L could cleave dynamin at neutral pH 7.0, recombinant dynamin 1 was incubated with purified cathepsin L (Stressgene) and respective proteolytic fragments were determined using anti-dynamin antibodies that recognize N-terminal GTPase domain (Stressgene). […] The most prominent proteolytic fragment traveled with molecular weight of approximately 40 kD. […] Thus, self-assembly of dynamin:GTPγS protected from cathepsin L cleavage. The middle domain and the […] mediate dynamin self-assembly into higher order structures. Based on the 3D-structure of self-assembled dynamin determined by cry-EM, the middle and the GAP domains are localized within self-assembled dynamin and thus amino acid sequences situated within either of these domains are predicted to be inaccessible for cathepsin L. Since activity of cathepsin L at pH 7.0 was marginal if GTP was not added in the assay, in order to examine whether GTPγS and thus self-assembly can protect from cathepsin L cleavage in general, assays were performed at lower pHs. As expected, at pH 5.0 and 6.0 cathepsin L potently proteolyzed recombinant dynamin (FIG. 4E). […] Thus, generation of 40 kD fragment upon addition of GTP in the assay and protection of the cleavage by GTPγS are consistent with primary cleavage site for cathepsin L to be present within the middle domain.
GTP in vitro and in vivo. To further examine if proteolysis of dynamin by cytoplasmic CatL occurs during proteinuric kidney disease, it was examined whether purified dynamin is cleaved by CatL in vitro at neutral pH. The PEPS algorithm identified three putative CatL recognition motifs within dynamin (FIG. 19A): amino acids 55-59 (LPRGS; SEQ ID NO.28) within the GTPase domain, 354-359 (ELSGGA; SEQ ID NO.29) within the middle domain, and 614-618 (FLRAG; SEQ ID NO.30) within the pleckstrin-homology (PH) domain. […] The cleavage pattern obtained in vitro is almost identical to that observed in podocytes after addition of LPS (FIG. 18A, compare lanes 3 and 5). p40 is the predicted size of the N-terminal fragment after cleavage at the ELSGGA sequence (FIG. 19A; SEQ ID NO.29). Another fragment, p55, is observed in the absence of added protease (FIG. 19C, lane 1), likely during protein preparation. Thus, p55 is not a precursor of p40. Furthermore, incubation of dynamin with CatB generated p55 in a nucleotide-independent manner (FIG. 19F, lanes 2-4), whereas furin, another protease also found in podocytes in vivo, was unable to cleave dynamin (FIG. 19F, lanes 6-8). Thus, while p55 is produced by a number of proteases and thus represents a “hot spot” for proteolysis, p40 is generated by CatL only when dynamin is in the GTP-bound conformation.
At pH 5.0 and 6.0, CatL was highly reactive towards recombinant dynamin, even in the absence of GTP (FIG. 19D, lanes 2 and 4).
Recombinant dynamin was purified as described (Damke et al., 2001). 1 μg of dynamin (10 pmol) was diluted in buffer containing 200 mM NaCl, 10 mM HEPES pH 7.0, 2 mM EGTA, 1 mM MgCl2 and 1 mM DTT. When indicated 200 μM of GTP or 1 mM of GTPγS was added, and dynamin was allowed to bind nucleotides for 10 min on ice. Reaction was initiated by addition of 0.5 μl of purified CatL (S.A. 4.13 units/mg of protein from Sigma, Saint Louis, Mo.), and samples were placed at 37° C. in the water bath for 10 min. Total assay volume was 20 μl. Reaction was terminated with addition of E-64d inhibitor (Sigma, Saint Louis, Mo.), and sample buffer. For Western blot analysis 5 μl of the samples was run on 10% SDS-PAGE. When CatB (S.A. 3 units/mg of protein from Sigma, Saint Louis, Mo.) or recombinant human furin (from R&D Systems, Minneapolis, Minn.) were used, 2 μl of the enzymes were added in the assay.

[2] = system: lysosomes; experiment: Lysosomal leakage assay using Lucifer Yellow in podocytes; assay type: cell-based, mouse
Source text: Next the reason for the relocalization of CatL in LPS treated podocytes was examined. To examine the possibility of lysosomal leakage, the localization of Lucifer Yellow, a cellular dye that is readily taken up into lysosomes was examined.

[3] = system: podocytes; experiment: Scrape wound (wound healing) assay of podocytes; assay type: cell-based, mouse; details: pretreatment 24 h; untreated cells 31%
Description: Functionally, lipid raft-associated uPAR has been implicated in cell migration (21). The motility of cultured podocytes was analyzed to explore the consequences of increased uPAR expression in lipid rafts. First, podocyte cell lines were established with stable knock down of uPAR expression using siRNA. The efficiency of uPAR-siRNA was confirmed by both semi-quantitative RT-PCR (>90% inhibition) and Western blotting (>70%) (FIG. 12A). A modified multi-well Boyden chamber assay was used to assess the random migration of differentiated podocytes. […] To test whether this effect was mediated by uPAR, uPAR knock-down studies were performed by stably transfecting uPAR-siRNA into podocytes. […] The distance from the wound margin migrated by cells was related to the total distance of the scar and expressed as percentage closure 12 h after post-wound incubation. […]
To study the directional movement of podocytes, wound healing assay was performed. […] The cell migratory distance was calculated by averaging the distance from the wound edge to the DAPI-labeled nucleus of the maximally migrated cell in five distinct border zones. The percentage of closure was calculated as migratory distance from both sides versus initial wound track width.

[4] = system: dynamin-dynamin interactions; experiment: FLIM analysis of dynamin-dynamin interactions (self-assembly) in podocytes; assay type: cell-based, mouse; details: Table 4; donor GTPase-a488, acceptor Hudy1-a568; in ps
Description: In one embodiment the cell-based assay to monitor dynamin-dynamin interactions is performed on a cultured mouse podocyte cell line and the readout of dynamin self-assembly using fluorescence lifetime imaging microscopy (FLIM). FLIM is based on the fluorescence resonance energy transfer (FRET) between the donor and acceptor that shortens the lifetime of the donor if the acceptor distance is within ≈100 Å (10 nm). […] The assay is based on overexpressing dynamin in podocytes, and subsequently staining fixed cells with monoclonal anti-dynamin antibodies that have been conjugated with donor or acceptor florophores. In one embodiment of the invention, Alexa-488 is used as the donor florophore and Alexa-568 is used as the acceptor florophore. In yet another embodiment the donor florophore is dynamin conjugated enhanced-cyan fluorescence protein (ECFP) and the acceptor is dynamin conjugated enhanced yellow-fluorescence protein (EYFP). It will be appreciated by the person of ordinary skill in the art that numerous combinations of FRET donor and acceptors can be used, which are readily available and known. In one embodiment, the FLIM assay is carried out in COS cells and the donor can be selected from the list consisting of: ECFP-WT, ECFP-1690K, ECFP-K44A, ECFP-K694A, and the -acceptor can be selected from the list consisting of: EYFP, EYFP-WT, EYFP-K44A, EYFP-1690K, EYFP-K694A. In yet another embodiment the FLIM assay is performed in podocytes and the donor is GTPase-Alexa488 and the acceptor is selected from the list consisting of: DAM-Alexa568, GTPase-Alexa568, and Hudyl-Alexa568. Cells are stained by mixing both donor and acceptor florophores in equal amounts, and examining the spatially-restricted lifetime shortening in cells detects the localization of dynamin-dynamin interactions in cells. Since dynamin-dynamin interactions are vital for the function of the podocyte, it will be appreciated by the person of ordinary skill in the art that this assay can now be used to screen peptides, small molecules or drugs which can affect these molecular interactions. For example such molecules are cytocholasin D, jasplakinolide, colchisine, dynK44A, dynK694A, dynWT, dynI690K, dynR725A (SEQ ID NO.4), dynL356Q, G358V, (SEQ ID NO.3) any combination thereof, etc.
In order to test the hypothesis that self-assembly of dynamin was protecting its cathepsin L processing in cultured podocytes, dynamin self-assembly in live cells was examined using fluorescence lifetime imaging microscopy (FLIM). FLIM is based on the fluorescence resonance energy transfer (FRET) between the donor and the acceptor that shortens the lifetime of the donor if the acceptor distance is within ≈100 Å (10 nm). […] A FLIM-assay was developed that specifically detects dynamin self-assembly into the higher order structures in podocytes. The assay is based on overexpressing dynamin in podocytes, and subsequently staining fixed cells with monoclonal anti-dynamin antibodies that have been conjugated with either Alexa-488 (donor florophore) or Alexa-568 (acceptor florophore). Cells are stained by mixing both florophores in equal amounts, and examining lifetime of Alexa-488. […] Importantly, FRET only occurred in the vicinity of the membrane. […] Thus, both dominant activating mutants, dynK694A and dynR725A, are impaired for assembly into a supramolecular structures in podocytes under normal conditions. […] Loss of FRET measured FLIM correlates with the loss of p40 proteolytic fragment in cultured podocytes. And presence of p40 in cells expressing dynR725A under normal conditions correlates with the lack of dynR725A assembly detected by FLIM. The opposite is true for the dynWT; lack of p40 under control conditions when FLIM is present, and appearance of the p40 upon LPS treatment with no measurable FRET. […] Finally, proteolytic processing of dynamin after LPS treatment is also observed in vivo. […]

[5] = system: dynamin; experiment: Dynamin self-assembly, apparent affinity measured in vitro; assay type: biochemical
Source text: The fact that this significant decrease in the fluorescence lifetime of ECFP is statistically insignificant is due to high fluctuations of the lifetimes between different cells (high error bar in Table 3). This is most likely due to ability of dynK694A to overcome its assembly defect under certain circumstances as shown in vitro. The fact that ECFP-dynK694A has a faster lifetime than ECFP-dynI690K is in agreement with its less severe assembly defect measured in vitro (apparent affinity of dynK694A is ˜7-fold lower then dynWT, whereas it is unmeasurable for dynI690K).

T1 sequence (P07711 114-333, species assumed): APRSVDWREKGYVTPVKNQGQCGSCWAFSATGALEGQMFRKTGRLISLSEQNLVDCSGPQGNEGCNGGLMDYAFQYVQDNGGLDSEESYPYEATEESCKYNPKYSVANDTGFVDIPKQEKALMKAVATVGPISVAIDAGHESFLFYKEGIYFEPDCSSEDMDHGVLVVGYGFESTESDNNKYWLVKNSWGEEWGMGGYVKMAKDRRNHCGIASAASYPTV

For `Nc1nc2c(ncn2[C@@H]2O[C@H](COP(=O)(O)OP(=O)(O)OP(O)(O)=S)[C@@H](O)[C@H]2O)c(=O)[nH]1` [GTPγS], the “cleavage of dynamin by cathepsin L, in words” value (from here on “cleavage of dynamin”) ([1]; acidic pH (5.0 and 6.0)) was “completely inhibited”, the “cleavage of dynamin” value ([1]; acidic pH (5.0 and 6.0), listed as GTP7S) was “completely inhibited” and the “cleavage of dynamin” value ([1]; acidic pH (5.0 and 6.0), listed as GTPgammaS) was “protects from cathepsin L mediated cleavage”. For the same molecule, the “cleavage of dynamin” value ([1]; pH 7.0) was “abolished dynamin cleavage by cathepsin L; also recorded: did not stimulate cleavage by CatL” and the “cleavage of dynamin” value ([1]; pH 7.0, listed as GTPgammaS) was “inhibited”.

With `CCCCCCCCCCCCC/C=C/[C@@H](O)[C@@H](N)CO` [sphingosine] the “lysosomal integrity (Lucifer Yellow), in words” value [2] was “led to the expected lysosomal rupture”.

In the case of `Nc1nc2c(ncn2[C@@H]2O[C@H](COP(=O)(O)OP(=O)(O)OP(=O)(O)O)[C@@H](O)[C@H]2O)c(=O)[nH]1` [GTP], the “cleavage of dynamin” value ([1]; pH 7.0) is reported as “resulted in significant cleavage of dynamin by cathepsin L; also recorded: resulted in the generation of a prominent proteolytic fragment”.

For `CN(C)c1ncnc2c1ncn2[C@@H]1O[C@H](CO)[C@@H](N)[C@H]1O` [PAN, puromycin aminonucleoside], the “percentage closure 12 h after post-wound incubation” value [3] was 63%.

B1: dynI690K: dynamin mutant with defective higher order assembly of tetramers (protein)
chain: MGNRGMEDLIPLVNRLQDAFSAIGQNADLDLPQIAVVGGQSAGKSSVLENFVGRDFLPRGSGIVTRRPLVLQLVNATTEYAEFLHCKGKKFTDFEEVRLEIEAETDRVTGTNKGISPVPINLRVYSPHVLNLTLVDLPGMTKVPVGDQPPDIEFQIRDMLMQFVTKENCLILAVSPANSDLANSDALKVAKEVDPQGQRTIGVITKLDLMDEGTDARDVLENKLLPLRRGYIGVVNRSQKDIDGKKDITAALAAERKFFLSHPSYRHLADRMGTPYLQKVLNQQLTNHIRDTLPGLRNKLQSQLLSIEKEVEEYKNFRPDDPARKTKALLQMVQQFAVDFEKRIEGSGDQIDTYELSGGARINRIFHERFPFELVKMEFDEKELRREISYAIKNIHGIRTGLFTPDMAFETIVKKQVKKIREPCLKCVDMVISELISTVRQCTKKLQQYPRLREEMERIVTTHIREREGRTKEQVMLLIDIELAYMNTNHEDFIGFANAQQRSNQMNKKKTSGNQDEILVIRKGWLTINNIGIMKGGSKEYWFVLTAENLSWYKDDEEKEKKYMLSVDNLKLRDVEKGFMSSKHIFALFNTEQRNVYKDYRQLELACETQEEVDSWKASFLRAGVYPERVGDKEKASETEENGSDSFMHSMDPQLERQVETIRNLVDSYMAIVNKTVRDLMPKTIMHLMKNNTKEFIFSELLANLYSCGDQNTLMEESAEQAQRRDEMLRMYHALKEALSIIGDINTTTVSTPMPPPVDDSWLQVQSVPAGRRSPTSSPTPQRRAPAVPPARPGSRGPAPGPPPAGSALGGAPPVPSRPGASPDPFGPPPQVPSRPNRAPPGVPSRSGQASPSRPESPRPPFDL
With B1 the “Mean Lifetime (γ1)” value [4] was 2359 ± 120 and the “apparent affinity for self-assembly, fold lower than dynWT” value [5] was “unmeasurable”.
